Source: patent US20240148747A1, “SMALL MOLECULE ACTIVATORS OF YAP TRANSCRIPTIONAL ACTIVITY FOR REGENERATIVE ORGAN REPAIR” (THE SCRIPPS RESEARCH INSTITUTE, priority 2021, published 2024)
Like-named read-outs stand apart in the source and are kept apart here.

How the values were obtained:
YAP = assay: TEAD-LUC activation assay (293A-TEAD-LUC reporter); format: cell-based; conditions: Homo sapiens
Description: More specifically, we used a 293A cell line harboring a stably integrated cassette containing 8 copies of the TEAD binding element upstream of luciferase (8xGTII-LUC). These cells retain responsiveness to contact inhibition-induced decreases in YAP transcriptional output.^6 The TEAD-responsive reporter assay (called 293A-TEAD-LUC throughout) was adapted to 1536-well format and then used to screen a library of ˜738k compounds for YAP-inducing activity.
Additional compounds of the present disclosure were subjected to the assay described above.

YAP and TEAD proteins = assay: YAP-TEAD association and YAP nuclear localization in cells; format: cell-based
[1] = Cytotoxicity in the TEAD-LUC activation assay; conditions: human
[2] = test system: epidermis of wildtype adult C57BL/6 mice; assay: Topical application to dorsal skin of C57BL/6 mice (epidermal remodeling); format: in vivo, mouse
Description: When applied topically to the dorsal skin of wildtype adult C57BL/6 mice over the course of ten days, compound 13 (10 uM) promoted a dramatic expansion of keratinocytes and K14-positive precursors as assessed by […] and anti-K14 histological staining at study end (FIG. 2D).
(§1) Compound 13 treatment, in an exemplary embodiment, promotes wound healing in human cells and induces a pro-proliferative effect on keratinocytes in the human skin surrogate species, the Yucatan mini pig. Accordingly, there was developed a gel-based formulation of compound 13, which allows for its stable room temperature storage and its topical delivery in high concentrations (up to about 1.5 weight percent).

Yucatan mini-pig skin = assay: Topical delivery in the Yucatan mini pig; format: in vivo
Description: as §1

human skin equivalents = assay: Wound healing in human skin equivalents (3 mm full thickness wound); format: cell-based
Description: as §1

[3] = test system: YAP-controlled transcripts (ANRKD1, CYR61, CTGF); assay: YAP-controlled transcript levels in 293A and other human cell lines; format: cell-based
[4] = test system: primary mouse epidermal keratinocytes; assay: Colony formation of primary mouse epidermal keratinocytes on dermal feeder layer; format: cell-based; conditions: 10-day growth period on dermal feeder layer
Description: We evaluated the proliferative response of primary cells and tissues to compound 13 treatment. […] In addition, compound 13 treatment allowed for the secondary re-plated expansion of Rhodamine B-stained keratinocytes and the time-dependent expression of YAP-driven transcript Cyr61 (FIGS. 2A-C).

in vitro = conditions: human

O=C(NCCCc1nccs1)c1cc(-c2ccccc2)on1 [Compound 13, 5-phenyl-N-(3-(thiazol-2-yl)propyl)isoxazole-3-carboxamide]
EC50 (YAP; Table 3, read-out: TEAD-LUC activation assay EC50): 1000 nM
EC50 (YAP; absence of serum, high cell density, read-out: EC50 of luciferase activity induction in 293A-TEAD-LUC cells): 1600 nM
EC50 (YAP; presence of serum, high cell density, read-out: EC50 of luciferase activity induction in 293A-TEAD-LUC cells): 1500 nM
association of YAP and TEAD proteins in cells (YAP and TEAD proteins): dose-dependently promoted
nuclear localization of YAP (YAP and TEAD proteins; in response to increased cell density): induced the nuclear localization of YAP
IC50 [1]: 13.7 µM
YAP-dependent transcripts Ctgf, Cyr61, and Ankrd1 ([2]; endpoint of the experiment): robust upregulation
epidermal thickening, gel-based formulation versus drug in acetone or DMSO ([2]; topical delivery, mouse): to a more significant degree
epidermal thickness ([2]; topical, ten days, 10 uM, wildtype mice): approximate doubling
KI-67 positive keratinocytes ([2]; topical, ten days, study end): substantially increased
epidermal hyperplasia, dermal hyperplasia, YAP-dependent gene expression (Yucatan mini-pig skin): promoted epidermal hyperplasia, dermal hyperplasia, and YAP-dependent gene expression
keratinocyte hyperplasia and wound contraction (human skin equivalents): promoted the hyperplasia of keratinocytes and promoted wound contraction
levels of YAP-controlled transcripts (ANRKD1, CYR61, CTGF) ([3]; 293A cells and MCF-10A, HEK293T, H69, HaCaT): robustly increased
levels of YAP itself (YAP1) ([3]; 293A cells and other human cell lines): did not augment
colony forming potential [4]: ~10 fold

CN1[C@H]2CC[C@@H]1CN(C(=O)c1cc(-c3ccccc3)on1)CC2 [Compound 129]
EC50 (YAP; Table 4, read-out: TEAD-LUC activation assay EC50): > 20000 nM
IC50 (in vitro): > 20 µM
